Experimental data: patent US20230219898A1, “COMPOUNDS AND METHODS FOR BLOCKING APOPTOSIS AND INDUCING AUTOPHAGY” (President and Fellows of Harvard College, priority 2020, published 2023)
Like-named read-outs stand apart in the source and are kept apart here.

Assays:
Human Jurkat cells = assay: Velcade-induced apoptosis of Jurkat cells, CellTiter-Glo viability; type: cell-based
Method: Human Jurkat cells were seeded in 96-well plates (20000 cells per well). Different concentrations of the compounds were added one hour prior to Velcade treatment, followed by the addition of 50 nM Velcade. After incubation for 24 hours, cell viability was measured by CellTiter-Glo Luminescent Cell Viability Assay.
The rates of cell death were measured in triplicate or quadruplicate in a 96-well or 384-well plate by using SYTOX Green Nucleic Acid Stain (Invitrogen) or ToxiLight Non-destructive Cytotoxicity BioAssay Kit (Lonza). The intensity of luminescence was determined in an EnSpire Multimode Plate Reader (PerkinElmer). Cytotoxicity is expressed as percentages of cell death per well after deducting the background signal in non-induced cells and compared to that of the maximal cell death with 100% Lysis Reagent. The rates of cell viability were determined by using CellTiter-Glo Luminescent Cell Viability Assay (Promega) following the manufacturer's protocol and the results are expressed as percentages of luminescence intensity per well after deducting the background signal in blank well and compared to that of the viability in the non-treated wells. Concentration of drugs used for inducing or inhibiting cell death, mTNFα: 1 ng/ml; 5Z-7-Oxozeaenol: 0.5 μM; Velcade: 50 nM; Apt-1/ICCB-19/ICCB-19i/Nec-1s: 10 μM.

[1] = Pharmacokinetic (DMPK) study of Apt-1, intracerebroventricular micro-osmotic pump; type: in vivo, mice; conditions: mouse, hippocampus, ICV pump 20 mM Apt-1, 0.25 μl/h
Method: Apt-1 was delivered using intracerebroventricular Alzet micro-osmotic pump (20 mM Apt-1, […], release rate: […]). CSF was collected at 1 h, 6 h, and 24 h. Hippocampi were collected at 24 h. The concentrations of Apt-1 were measured by HPLC. The concentration of Apt-1 in hippocampus at 24 h was 6.27 μM. Mean ±s.e.m. (n=3 mice in each group).
WT mice (2 months old) were deeply anesthetized with isoflurane and immobilized in a stereotaxic frame using predetermined coordinates under aseptic conditions. All animals were observed during and after surgery, and an analgesic was administered after surgery. Apt-1 (20 mM, 100 μl, release rate: 0.25 μl/h) was delivered intracerebroventricularly via an ALZET micro-osmotic pump (ALZET Model 1002) and ALZET brain infusion kits into lateral ventricles (ML, −1.0 mm; AP, −0.5 mm; DV, 2.0 mm). The ALZET micro-osmotic pumps were fixed on the skulls of the mice by instant adhesive and the skin incision was closed by suture. At 1 h, 6 h and 24 h after the onset of delivery, cerebrospinal fluid (CSF) was carefully withdrawn by a Hamilton syringe from lateral ventricles (ML, −1.0 mm; AP, −0.5 mm; DV, 2.0 mm) for DMPK analysis. The mice were sacrificed at 24 h and the hippocampi were dissected for DMPK analysis. […] The concentrations of Apt-1 in collected samples were measured by HPLC as a custom service by the Scripps Research Institute Florida.

[2] = test system: brain slices from PS19 mice; assay: Cultured organotypic brain slices from PS19 mice; type: cell-based; conditions: treatment for 3 h
Method: FIG. 14g contains epresentative images and quantification of cultured brain slices from PS19 mice (4 months old) stained with phospho-tau (red) and cell nuclei (DAPI/blue). Mean ±s.e.m. from biological replicates (n=5). Two-tailed t-test.
PS19 mice (4 months old) were anesthetized with isoflurane prior to decapitation. The brain was removed and immediately immersed in ice-cold cutting solution (2.5 mM KCl, 5 mM MgCl2, 11 mM D-Glucose, 238 mM Sucrose, 26 mM NaHCO3, 1 mM NaH2PO4, 1 mM CaCl2)). The cerebellum was trimmed off and the caudal end of the brain was glued onto the cutting table of the vibratome (LEICA VT1000 S, Germany). The brain was cut in coronal slices of […] with an amplitude of 1.5 mm, a frequency of 75 Hz and a velocity of 0.1 mm/s. The slices were collected and stored in ice-cold cutting solution before floating onto semi-porous membrane inserts (Millipore, Millicell-CMLow Height Culture Plate Inserts, Schwalbach, Germany). Slices were cultured at 37° C. and 5% CO2 in a culture medium consisting of 394 ml MEM, 10% normal horse serum, 5 mg/mL penicillin, 5 mg/mL streptomycin, 2.5 ml L-glutamine, 1 mM MgSO4, 11 mM D-Glucose, 238 mM Sucrose, 5 mM NaHCO3, 1 mM CaCl2), 26.6 mM HEPES, 0.024 ml 25% ascorbic acid and 0.5 mg Insulin. Medium was changed every other day. Slices are maintained for 14 days in vitro prior to treatment.

TRADD-N and TRAF2-C = target: T1, TRADD-N and TRAF2-C (Homo sapiens, UniProt Q15628); assay: NanoBiT protein-protein interaction assay TRADD-N / TRAF2-C; type: cell-based
T1 construct: expression constructs encoding Flag-TRADD-N(1-179) and HA-TRADD-C(180-312); expressed in transfected cells; host or cells: HEK293T
T1 sequence (Q15628 1-179): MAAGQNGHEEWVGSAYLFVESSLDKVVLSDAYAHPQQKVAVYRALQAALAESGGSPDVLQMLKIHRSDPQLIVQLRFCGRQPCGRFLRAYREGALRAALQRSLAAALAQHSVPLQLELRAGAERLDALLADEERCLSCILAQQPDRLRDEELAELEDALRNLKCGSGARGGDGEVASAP
Method: Mean ±s.d. from quadruplicates (n=4).
The Nano-Glo Live Cell assay kit (Promega) was used as follows: HEK293T cells were seeded at 7.5×10^3 cells per well in a white, clear-bottom 96-well plate 12 h before transfection (10 ng LgBiT-fused construct and 10 ng SmBiT-fused construct). After 24 h incubation, medium was removed and replaced with 100 μl Opti-MEM medium for 1 h at 37C. The Nano-Glo reagent was prepared as per manufacturer's instructions and added to each well immediately before the luminescence reading was taken. Luminescence was measured at 1 min intervals for 10 min on a plate reader and reported as relative light units (RLU). For quantitative comparison of LgBiT-SmBiT interactions, the peak values at the 2-3 min time point were used. Concentration of compounds used in NanoBiT assay: 10 μM (Apt-1, ICCB-19 or ICCB-19i).

[3] = test system: PS19 mice injected with tau pffs; assay: Tau pff transmission model in PS19 mice, Apt-1 delivered intracerebroventricularly
[4] = FIG. 5b, Velcade 50 nM, 24 h, read-out: IC50 of inhibition of Velcade-induced apoptosis
[5] = Table 3, 50 nM Velcade, 24 hours, read-out: Jurkat Velcade IC50/μM

Row | Compound | IC50 (Human Jurkat cells; [4]) | IC50 (Human Jurkat cells; [5]) | concentration at 24 h [1] | autophagy and accumulation of mutant tau in brain slices [2] | direct binding of TRADD-N and TRAF2 (NanoBiT) (TRADD-N and TRAF2-C) | survival or behavior of the mice ([3]; 20 mM Apt-1 ICV pump, one month or one week) | accumulation of tangle-like tau aggregates, delayed dosing ([3]; Apt-1 for 1 week, 3 weeks after pffs) | autophagy and levels of tau in hippocampus ([3]; FIG. 3a) | neurofibrillary tangle-like pathogenesis induced by pffs (AT8, MC1) ([3]; FIG. 3b, 3c) | activated pRIPK1+ and apoptotic TUNEL+ cells in CA1 hippocampus ([3]; FIG. 3d, 3e) | IC50 (Human Jurkat cells; Table 1, 50 nM Velcade, 24 hours, read-out: Apoptosis of Jurkat cells induced by Velcade (IC50 μM))
1 | CN1CCN=C1SC(C(=O)NC1CCCCCC1)c1ccccc1 (stereo not shown) [Compound 30] | ~1 µM | 0.799 µM | 6.27 µM | induced autophagy and reduced the accumulation of mutant tau | dose-dependently reduced | no apparent difference in survival or behavior | effectively reduce the accumulation of tangle-like tau aggregates | induce autophagy and reduce the levels of tau | reduced neurofibrillary tangle-like pathogenesis | inhibited | 
2 | O=C(CSC1=NCCN1)NC1CCCCCC1 [ICCB-19] | ~1 µM | 1.12 µM |  |  |  |  |  |  |  |  | 1.1 µM
